For 16 compounds, inhibition, EC50 and IC50 results are on record in patent publication US12084422B2, “Phenyl-n-quinoline derivatives for treating a RNA virus infection” (ABIVAX, priority 2018, dated 2024).

Experiment [1] relates to Chikungunya Virus (CHIKV) strain LR2006-OPY1 with GFP modification (CHIK 5'LR). In words: Inhibition of Chikungunya virus (CHIKV) production in infected HEK293T cell line (GFP fluorescence). Format: cell-based. As to conditions: HEK-293T, infected HEK293T cells; for inhibition at 1 µM: compounds at 1 μM, MOI 0.1, 22 h, values above 100 lowered to 100, read-out: % CHIKV Inhibition Mean (n = 2); for IC50: second round of experiments. Here is the method:
The ability of the compounds to inhibit viral replication was assessed with an experiment in which infected cells were treated by compounds of formula (I) at 1 μM. As a positive control for inhibition of Chikungunya, Ribavirin was used. Toxicity of the compounds was assessed in parallel.
Human embryonic kidney cells 293T (HEK293T, CRL-11268) were maintained in Dulbecco's modified Eagle's Medium (DMEM, 31966-021, Thermo Fisher Scientific) supplemented with 10% of fetal bovine serum (FBS), penicillin and streptomycin. After removal of the medium, cells were washed with a Ca^2+- and Mg^2+-free salt solution to remove all traces of serum. After aspiration of wash solution, cells were dissociated with 0.25% Trypsin-EDTA solution and incubated 30 s at least in 37° ° C. incubator. Concentration of cell suspension was determined by an automatic cell counter (EVE, NanoEntek) and, if needed, adjusted to 0.33×10^6 cells/mL with DMEM medium supplemented with 10% FBS.
100 μL of the cell suspension were dispatched in a ViewPlate-96 Black (6005182, PerkinElmer) and in a transparent 96-well cell culture plate (655180, Greiner bio-one). After an incubation for 24 h at 37° C. under 5% of CO2, compounds were added at the proper concentration.
An intermediate dilution was prepared with DMSO (D8418, Sigma) at 2 mM in a 96-well V-bottom microplate from the stock solution:
Mix 1 μL of the 50 mM stock library in 25 μL of DMSO.
Mix 2 μL of the 25 mM stock library in 25 μL of DMSO.
An intermediate dilution was prepared with DMSO (D8418, Sigma) at 25 mM in a 96-well V-bottom microplate from the stock solution:
Mix 2 μL of the 50 mM stock library in 2 μL of DMSO.
Serial dilutions were performed in 2 μL of DMSO 13 times to reach 0.0015 mM as follows in table III:
For both screen and determination of IC50 1 μL of each solution was added in a 1 mL Masterblock 96 wells (Greiner bio-one, 780261) containing 1 mL of DMEM medium. As a positive control, 5 μL of a 80 mM Ribavirin solution (R9644, Sigma) is added to 1 mL of DMEM. On the other hand, DMSO is used as a negative control.
[…]. Vector Borne Zoonotic Dis. 2006; 6(4)). This modified virus was used to infect cells at MOI 0.1. […].
Medium was removed after 22 h at 37° ° C. under 5% of CO2 and cells were washed as described above. 60 μL of RIPA buffer (50 mM Tris-HCl pH8, 100 mM NaCl, 1 mM MgCl2, 1% Triton X-100) was added to cells and incubated for at least 20 min before reading fluorescence signal. Pierce 660 nm Protein Assay Reagent (22660, Thermo scientific) was used to normalize fluorescence signal by protein quantity.
A first round of experiments has been performed wherein the results are expressed as inhibition percentage, which is calculated as follows, through the following steps:
1. Fluorescence intensity (FI) 509 nm/Absorbance 660 nm (A660)=A
This ratio allows considering the infection (GFP virus) to the protein amount.
2. A′=A—background noise of non-infected plate,
3. B=Fluorescence intensity (FI)/Absorbance 660 nm (A660) of infected but non treated plates,
4. C=A′/B which is then converted as the percentage of infection after treatment, compared to non-treated sample, and subsequently as the […]. For instance, a value of 100 in Table IV here below means that, after treatment, the signal attributed to GFP fluorescence is abolished, which is correlated to the absence of infection.
This value corresponds to the inhibition's percentage.
The following Table IV encompasses said C′ value for some compounds as calculated above with a mean of 2 experiments, and the corresponding standard deviation.
Some values were originally above 100. In these cases, the value has been lowered to 100. This means that some molecules also have an impact on the viability of the cells. In other words, the A value may be lower than the background noise.
Moreover, for each measure, the test was performed with Ribavirin as control. The value of the inhibition percentage was checked, giving 100%.

Another experiment has as its system RSV A2. In words: Screening for RSV inhibition using Viral ToxGlo assay in HEp-2 cells. To be noted: human respiratory syncytial virus, HEp-2, 72 h. Format: cell-based. Here is the method: Protocol for Screening Antiviral Compounds for RSV Inhibition and Cytotoxicity Using Viral ToxGlo Assay
HEp-2 cells were maintained in Eagle's minimum essential medium (EMEM) with Earle's BSS adjusted to contain 2 mM L-glutamine, 10% fetal bovine serum, 100 U/ml penicillin and 100 μg/ml streptomycin. For the purposes of the screening assay they were grown to 90% confluency, trypsinized and recovered. The trypsin was neutralised with cell culture media and cells were centrifuged at 150×g for 5 minutes before discarding the supernatant and resuspending cell pellet in assay media (EMEM with Earle's BSS adjusted to contain 2 mM L-glutamine, 2% fetal bovine serum and 100 U/ml penicillin and 100 μg/ml streptomycin). The cells were seeded into white clear-bottomed cell culture plates at a density of 1.5×10^4 cells/well in 50 μl and 4×10^3 cells/well in 25 μl for 96 well plates and 384 well plates respectively. For the media/background control column assay media only was added. Cell plates were placed in a humid chamber and incubated overnight at 37° C./5% CO2. After overnight incubation cells were checked for confluency and healthy appearance.
Test articles were made up at 10× test concentration in a maximum DMSO concentration of 10% (final assay concentration maximal 1% DMSO) and added to the cell plates in volumes of 10 μl for 96 well plates and 5 μl for 384 well plates. For cell control and virus control wells the test article solvent only was added. Virus or assay media for cytotoxicity test wells and media/cell control wells was added immediately after test articles at an MOI of 0.5, 40 or 20 μl for 96 and 384 well plates respectively. Virus suspension was prepared by thawing RSV A2 frozen stocks and diluting to the required concentration of plaque forming units in assay media on ice.
Cell plates were further incubated inside a humid chamber for 72 h p.i at 37° C./5% CO2. After the incubation period cells were observed under the microscope to check for characteristic cytopathic effect in virus control wells and healthy cells in the cell control wells. After plates were adjusted to room temperature 20/40 μl Viral ToxGlo (Promega) was added to each well of the 384/96 well cell plates. Plates were incubated at room temperature, protected from light on a plate rocker for 20 minutes before measuring the luminescence on a spectrophotometer (Biotek Synergy HTX).
RSV inhibition was calculated as percentage of cytopathic effect inhibition relative to the virus control and cytotoxicity as percentage of cell survival relative to cell control wells. This allowed EC50 values to be calculated for each test article where a virus inhibition or cytotoxic dose response was identified. EC50 values ranging between 0.001 µM and 5 μM could thus be determined for compounds 1, 6, 10, 13, 28, 38, 43, 47, 48, 49, 50, 51, 52, 53, 54, 55, 56 and 57.

A further experiment relates to DENV-2 strain 16681. In words: Screening for DENV-2 inhibition using Viral ToxGlo assay in A549 cells. Format: cell-based, Dengue 2 virus. As to conditions: Dengue virus, DENV2, A549, 120 h, read-out: % DENV-2 Inhibition Mean (n = 3). The protocol: Protocol for Screening Antiviral Compounds for DENV-2 Inhibition and Cytotoxicity Using Viral ToxGlo Assay
A549 cells were maintained in Dulbecco's Modified Eagle Medium (DMEM) supplemented with 10% fetal bovine serum, 100 U/ml penicillin and 100 μg/ml streptomycin. For the purposes of the screening assay they were grown to 90% confluency, trypsinized and recovered. The trypsin was neutralised with cell culture media and cells were centrifuged at 150×g for 5 minutes before discarding the supernatant and resuspending cell pellet in assay media (DMEM supplemented with 2% fetal bovine serum and 100 U/ml penicillin and 100 μg/ml streptomycin). The cells were seeded into 96-well white clear-bottomed cell culture plates at a density of 1.0×10^4 cells/well in 50 μl. For the media/background control column assay media only was added. Cell plates were placed in a humid chamber and incubated overnight at 37° C./5% CO2. After overnight incubation cells were checked for confluency and healthy appearance.
Test compounds were prepared at a final concentration of 10 μM, in a maximum DMSO concentration of 1% (final assay concentration maximal 0.1% DMSO) and added to the cell plates in volumes of 10 μl. For cell control and virus control wells the test article solvent only was added. As a positive inhibition control, 7-Deaza-2′-C-methyladenosine was added at 100 μM in 3 wells. Virus (DENV-2 strain 16681) or assay media for cytotoxicity test wells and media/cell control wells was added immediately after test articles at an MOI of 0.5, 40 for 96 well plates respectively. Virus suspension was prepared by thawing DENV-2 frozen stocks and diluting to the required concentration of plaque forming units in assay media.
Cell plates were further incubated inside a humid chamber for 5 days p.i at 37° C./5% CO2. After the incubation period cells were observed under the microscope to check for characteristic cytopathic effect in virus control wells and healthy cells in the cell control wells. After plates were adjusted to room temperature 20 μl Viral ToxGlo (Promega) was added to each well of the 96-well cell plates. Plates were incubated at room temperature for 5 minutes before measuring the luminescence on a spectrophotometer (Envision, PerkinElmer).
DENV-2 inhibition was calculated as percentage of cytopathic effect inhibition relative to the virus control and cytotoxicity as percentage of cell survival relative to cell control wells.

In the case of `Cc1cc(OC(F)(F)F)ccc1Nc1ccc2cccc(Cl)c2n1` [Compound 1, 8-chloro-N-(2-methyl-4-(trifluoromethoxy)phenyl)quinolin-2-amine], the inhibition – broadly, the relative decrease from the control value, in per cent – at 1 µM in experiment [1] was found to be 97%. For the same compound, in the experiment with RSV A2, the EC50 (commonly the concentration at which the effect is half-maximal) amounted to 3310 nM.
`CCCc1cc(OC(F)(F)F)ccc1Nc1ccc2cccc(Cl)c2n1` [Compound 6, 8-chloro-N-(2-propyl-4-(trifluoromethoxy)phenyl)quinolin-2-amine]: in experiment [1], the inhibition at 1 µM amounted to 100% and the IC50 (usually the concentration that inhibits the measured activity by half) fell in the range of 1 to 200 nM. Besides, the EC50 in the experiment with RSV A2 was determined as 1210 nM.
Regarding `Cc1ccc(Oc2ccc(Nc3ccc4ccccc4n3)cc2)cc1` [Compound 28, N-(4-(p-tolyloxy)phenyl)quinolin-2-amine], in the experiment with RSV A2, the EC50 came to 1780 nM.
On to `Cc1cc(Oc2ccccc2F)ccc1Nc1ccc2ccccc2n1` [Compound 38, N-(4-(2-fluorophenoxy)-2-methylphenyl)quinolin-2-amine], for which, in experiment [1], the inhibition at 1 µM amounted to 98% and the IC50 fell in the range of 1 to 200 nM. Also, the EC50 with RSV A2 stood at 200 nM.
As to `Cc1cc(OC(C)C)c(C(C)C)cc1Nc1ccc2cccc(Cl)c2n1` [Compound 40, 8-chloro-N-(4-isopropoxy-5-isopropyl-2-methylphenyl)quinolin-2-amine], in experiment [1], the IC50 lay within 1 to 200 nM. In the experiment with DENV-2 strain 16681, the inhibition at 10 µM stood at 97%.
Taken in the same sequence, the figures for `Clc1cccc2ccc(Nc3ccc(OC4CCC4)cc3C3CC3)nc12` [Compound 42, 8-chloro-N-(4-cyclobutoxy-2-cyclopropylphenyl)quinolin-2-amine] were 1 to 200 nM and 84%.
On the same counts, the results for `Clc1cccc2ccc(Nc3ccc(OC4CCCC4)cc3C3CC3)nc12` [Compound 44, 8-chloro-N-(4-(cyclopentyloxy)-2-cyclopropylphenyl)quinolin-2-amine] are 1 to 200 nM and 94%.
On the same counts, the results for `Fc1ccccc1Oc1ccc(Nc2ccc3ccccc3n2)c(C2CC2)c1` [Compound 46, N-(2-cyclopropyl-4-(2-fluorophenoxy)phenyl)quinolin-2-amine] are 1 to 200 nM and 104%.
As for `Cc1cc(OC(C)C)c(C2CC2)cc1Nc1ccc2cccc(Cl)c2n1` [Compound 48, 8-chloro-N-(5-cyclopropyl-4-isopropoxy-2-methylphenyl)quinolin-2-amine], the EC50 in the experiment on RSV A2 was determined as 360 nM.
`Cc1c(Nc2ccc3cccc(Cl)c3n2)cccc1OC(C)C` [Compound 49, 8-chloro-N-(3-isopropoxy-2-methylphenyl)quinolin-2-amine]: in the experiment on RSV A2, the EC50 amounted to 513 nM.
Same read-out and setting: as for `Cc1c(Nc2ccc3cccc(Cl)c3n2)cccc1OCc1ccccc1` [Compound 50, N-(3-(benzyloxy)-2-methylphenyl)-8-chloroquinolin-2-amine], the figure is 283 nM; as for `COc1ccc(Oc2ccc(Nc3ccc4ccccc4n3)c(C)c2)cc1` [Compound 51, N-(4-(4-methoxyphenoxy)-2-methylphenyl)quinolin-2-amine], 412 nM.
The same measure, in the same setting: next, `COc1ccc(Oc2ccc(Nc3ccc4ccccc4n3)c(C3CC3)c2)c(F)c1` [Compound 52, N-(2-cyclopropyl-4-(2-fluoro-4-methoxyphenoxy)phenyl)quinolin-2-amine]: 344 nM.
With `Cc1cc(Oc2ccc(O)cc2F)ccc1Nc1ccc2ccccc2n1` [Compound 53, 3-fluoro-4-(3-methyl-4-(quinolin-2-ylamino)phenoxy)phenol], the EC50 in the experiment with RSV A2 worked out at 196 nM.
Same read-out and setting: next, `Cc1c(Nc2ccc3cccc(Cl)c3n2)cccc1Oc1ccccc1` [Compound 55, 8-chloro-N-(2-methyl-3-phenoxyphenyl)quinolin-2-amine]: 192 nM; `Cc1cc(Oc2ccc3ccccc3c2)ccc1Nc1ccc2cccc(Cl)c2n1` [Compound 57, 8-chloro-N-(2-methyl-4-(naphthalen-2-yloxy)phenyl)quinolin-2-amine]: 473 nM.
